In ChEMBL document CHEMBL1201862, “PubChem BioAssay data set” (2004):
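96-well plates; 48 h exposure; 5 concentrations. Endpoints by linear interpolation between flanking doses. Not reached: highest tested concentration assigned. GI50: concentration for 50% inhibition of growth.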 Active and inactive are the calls of the source. Cut-off read from the data, not from the text of the source: active = GI50 up to about 1.1 µM and inactive = higher. Non-standard residues stand in square brackets, D forms with d. Residues, ends and D or L forms follow the SMILES beside them. Ava = NCCCCC(=O)O; Mpa = O=C(O)CCS

Tests used:
Assay in all cases: growth of human tumour cells (NCI), 48 h
SNB-19 = test system: SNB-19
OVCAR-5 = test system: OVCAR-5
OVCAR-3 = test system: OVCAR-3
UACC-62 = test system: UACC-62
PC-3 = test system: PC-3
CCRF-CEM = test system: CCRF-CEM
SK-MEL-2 = test system: SK-MEL-2
RXF 393 = test system: RXF 393
SR = test system: SR
Hs-578T = test system: Hs-578T
COLO 205 = test system: COLO 205
ACHN = test system: ACHN
M14 = test system: M14
SNB-75 = test system: SNB-75
TK-10 = test system: TK-10
U-251 = test system: U-251
MDA-N = test system: MDA-N
HOP-92 = test system: HOP-92
SK-OV-3 = test system: SK-OV-3

Row | SMILES | GI50 (SNB-19) | GI50 (OVCAR-5) | GI50 (OVCAR-3) | GI50 (UACC-62) | GI50 (PC-3) | GI50 (CCRF-CEM) | GI50 (SK-MEL-2) | GI50 (RXF 393) | GI50 (SR) | GI50 (Hs-578T) | GI50 (COLO 205) | GI50 (ACHN) | GI50 (M14) | GI50 (SNB-75) | GI50 (TK-10) | GI50 (U-251) | GI50 (MDA-N) | GI50 (HOP-92) | GI50 (SK-OV-3)
1 | c1ccc([P+](CCCCCCCC[P+](c2ccccc2)(c2ccccc2)c2ccccc2)(c2ccccc2)c2ccccc2)cc1 | 0.396 µM (active) | 11.2 µM (inactive) | 3.83 µM (inactive) | 24.1 µM (inactive) | 1.19 µM (inactive) | 9.23 µM (inactive) | 5.69 µM (inactive) | 31.6 µM (inactive) | 23 µM (inactive) | 2.06 µM (inactive) | 0.91 µM (active) | 58.9 µM (inactive) | 35.6 µM (inactive) | 0.307 µM (active) | 18 µM (inactive) | 0.22 µM (active) | 6.89 µM (inactive) | 3.07 µM (inactive) | 17.3 µM (inactive)
2 | COc1cc(O)cc2oc(-c3ccc(O)cc3)cc(=O)c12 | > 100 µM (inactive) | > 100 µM (inactive) | > 100 µM (inactive) | 83.9 µM (inactive) | > 100 µM (inactive) | > 100 µM (inactive) | 52.8 µM (inactive) | 32.7 µM (inactive) | 37.8 µM (inactive) | 57 µM (inactive) | > 100 µM (inactive) | 64.7 µM (inactive) | > 100 µM (inactive) | 14 µM (inactive) | > 100 µM (inactive) | 71.4 µM (inactive) | > 100 µM (inactive) | 71.9 µM (inactive) | > 100 µM (inactive)
3 | CCOS(=O)(=O)c1ccc(-c2c3nc(c(-c4ccc(S(=O)(=O)OCC)cc4)c4ccc([nH]4)c(-c4ccc(S(=O)(=O)OCC)cc4)c4nc(c(-c5ccc(S(=O)(=O)OCC)cc5)c5ccc2[nH]5)C=C4)C=C3)cc1 | > 31.6 µM (inactive) | > 31.6 µM (inactive) | > 10 µM (inactive) | > 31.6 µM (inactive) | > 31.6 µM (inactive) | > 31.6 µM (inactive) | > 31.6 µM (inactive) | 17.2 µM (inactive) | > 31.6 µM (inactive) | > 31.6 µM (inactive) | > 31.6 µM (inactive) | > 31.6 µM (inactive) | > 31.6 µM (inactive) | > 10 µM (inactive) | > 31.6 µM (inactive) | > 31.6 µM (inactive) | > 31.6 µM (inactive) | > 100 µM (inactive) | > 31.6 µM (inactive)
4 | N#Cc1c(=O)c2cccnc2n2c1[nH]c1ccccc12 | 57.7 µM (inactive) | > 100 µM (inactive) | 78 µM (inactive) | > 100 µM (inactive) | > 100 µM (inactive) | > 100 µM (inactive) | > 100 µM (inactive) | 74.1 µM (inactive) | > 100 µM (inactive) | 21.6 µM (inactive) | > 100 µM (inactive) | 42.1 µM (inactive) | 90.2 µM (inactive) | 50.5 µM (inactive) | 55.5 µM (inactive) | 38.6 µM (inactive) | > 100 µM (inactive) | 22.6 µM (inactive) | 52.8 µM (inactive)
5 | Cc1ccc(Nc2nc3ccccc3nc2NS(=O)(=O)c2ccc(N)cc2)cc1 | 31.1 µM (inactive) | > 100 µM (inactive) | 65 µM (inactive) | 36.1 µM (inactive) | 41.8 µM (inactive) | 18.4 µM (inactive) | 29.4 µM (inactive) | 30.8 µM (inactive) | 20.7 µM (inactive) | 65.5 µM (inactive) | 45.8 µM (inactive) | 38.5 µM (inactive) | 57.7 µM (inactive) | 84.9 µM (inactive) | 45.9 µM (inactive) | 30.2 µM (inactive) | 41.4 µM (inactive) | 95.9 µM (inactive) | > 100 µM (inactive)
6 | CC(NC(=O)CCS)C(=O)NC(C)C(=O)NC(Cc1c[nH]c2ccccc12)C(=O)NC(Cc1c[nH]cn1)C(=O)NC(CO)C(=O)NC(Cc1c[nH]c2ccccc12)C(=O)NCCCCC(=O)NC(C)C(=O)NC(CCC(N)=O)C(=O)NC(CCCCN)C(=O)NC(C)C(=O)NC(CCCNC(=N)N)C(=O)NC(CCCCN)C(N)=O (stereo not drawn) ([Mpa]AAWHSW[Ava]AQKARK-NH2; configuration not given here) | > 100 µM (inactive) | > 100 µM (inactive) | > 100 µM (inactive) | 22.5 µM (inactive) | > 100 µM (inactive) | 79.4 µM (inactive) | > 100 µM (inactive) | > 100 µM (inactive) | 87.5 µM (inactive) | > 100 µM (inactive) | 43.5 µM (inactive) | > 100 µM (inactive) | > 100 µM (inactive) | > 100 µM (inactive) | > 100 µM (inactive) | 43.2 µM (inactive) | 54.2 µM (inactive) | > 100 µM (inactive) | > 100 µM (inactive)
7 | CCOC(=O)NC(NNc1ccc([N+](=O)[O-])cc1[N+](=O)[O-])(C(F)(F)F)C(F)(F)F | 35.2 µM (inactive) | 46 µM (inactive) | 31.6 µM (inactive) | 74.5 µM (inactive) | 24.7 µM (inactive) | 20.6 µM (inactive) | 47 µM (inactive) | 27.8 µM (inactive) | 5.79 µM (inactive) | 34.4 µM (inactive) | 16.1 µM (inactive) | 43.3 µM (inactive) | 65.2 µM (inactive) | 45.7 µM (inactive) | 30.7 µM (inactive) | 22 µM (inactive) | 40.7 µM (inactive) | 12.7 µM (inactive) | 23.4 µM (inactive)
